In patent publication US20110143948A1, “MOLECULAR SIGNATURES AND BIOMARKERS ASSOCIATED WITH MELANOMA AND METHODS OF USE THEREOF” (priority 2008, published 2011):

Key:
Assay type in all cases: cell-based, human
FGF2 = experiment: beta gal target cleavage assay, FGF2; conditions: pcDNA6/LacZ/FGF2; data not shown
Description: (§1) Target cleavage assays using the miRNA targets from the bioinformatics analyses above were conducted. The 3′ UTR seed sequences of putative target genes were amplified by PCR (Phusion PCR kit, Finnzymes) from human Melanocyte genomic DNA (Primers: ARL2 For-ctcctccaccccagcctgc (SEQ ID NO 92), ARL2 Rev-[…] (SEQ ID NO 93); FGF2 For-[…] (SEQ ID NO 94), FGF2 Rev-[…] (SEQ ID NO 95); RAB22A For-[…] (SEQ ID NO 96), RAB22A Rev-[…] (SEQ ID NO 97); SLC37A3 For-[…] (SEQ ID NO 98), SLC37A3 Rev-[…] (SEQ ID NO 99); TCF12 For-[…] (SEQ ID NO 100), TCF12 Rev-[…] ((SEQ ID NO 101); all primer sets containing 5′ NotI and 3′ AgeI sites). PCR products were cloned into pCR4-TOPO (Invitrogen), confirmed by sequencing, then subcloned into the 3′ UTR of the LacZ gene in pcDNA6/V5-His/LacZ (Invitrogen) using the 5′ NotI and 3′ AgeI restriction sites, and reconfirmed by sequencing (pcDNA6/LacZ/ARL2, pcDNA6/LacZ/FGF2, pcDNA6/LacZ/RAB22A, pcDNA6/LacZ/SLC37A3, and pcDNA6/LacZ/TCF12, respectively). FIG. 11 is an example of the pcDNA6/LacZ construct used within these experiments. As shown, the FGF2 target sequence may be cloned into the 3′ UTR of the LacZ gene. […]

TCF12 = experiment: beta gal target cleavage assay, TCF12; conditions: A375 cells, mimic co-transfected at 100 nM; Kruskal Wallis p-value<0.001
Description: Target cleavage assays using the miRNA targets from the bioinformatics analyses above were conducted. The 3' UTR seed sequences of putative target genes were amplified by PCR (Phusion PCR kit, Finnzymes) from human Melanocyte genomic DNA (Primers: ARL2 For-[NT] (SEQ ID NO 92), ARL2 Rev-[NT] (SEQ ID NO 93); FGF2 For-[NT] (SEQ ID NO 94), FGF2 Rev-[NT] (SEQ ID NO 95); RAB22A For-[NT] (SEQ ID NO 96), RAB22A Rev-[NT] (SEQ ID NO 97); SLC37A3 For-[NT] (SEQ ID NO 98), SLC37A3 Rev-[NT] (SEQ ID NO 99); TCF12 For-[NT] (SEQ ID NO 100), TCF12 Rev-[NT] ((SEQ ID NO 101); all primer sets containing [NT] AgeI sites). PCR products were cloned into pCR4-TOPO (Invitrogen), confirmed by sequencing, then subcloned into the 3' UTR of the LacZ gene in pcDNA6/[…]/LacZ (Invitrogen) using the [NT] AgeI restriction sites, and reconfirmed by sequencing (pcDNA6/LacZ/ARL2, pcDNA6/LacZ/FGF2, pcDNA6/LacZ/RAB22A, pcDNA6/LacZ/SLC37A3, and pcDNA6/LacZ/TCF12, respectively). FIG. 11 is an example of the pcDNA6/LacZ construct used within these experiments. As shown, the FGF2 target sequence may be cloned into the 3' UTR of the LacZ gene. A375 Melanoma cell lines were transfected in triplicate (Fugene 6, Roche) with 5 μg plasmid DNA of: […] Negative control sequence is based on cel-miR-67, mature sequence: […] been confirmed to have minimal sequence identity with miRNAs in human, mouse and rat or E) no mimic. […]

RAB22A = experiment: beta gal target cleavage assay, RAB22A; conditions: A375 cells, mimic co-transfected at 100 nM
Description: as §1

SLC37A3 = experiment: beta gal target cleavage assay, SLC37A3; conditions: A375 cells, mimic co-transfected at 100 nM
Description: as §1

KCNMA1 = experiment: beta gal target cleavage assay, KCNMA1

Substance: miR-16: miRIDIAN microRNA Mimic (Dharmacon) for miR-16, UAGCAGCACGUAAAUAUUGGCG (commercial miRIDIAN mimic, chemistry not given here; listed as Homo sapiens)
- targeting of FGF2 (target cleavage assay) (FGF2): confirmed

Substance: miR-211: miRIDIAN microRNA Mimic (Dharmacon) for miR-211, UUCCCUUUGUCAUCCUUCGCCU (commercial miRIDIAN mimic, chemistry not given here; listed as Homo sapiens)
- beta-galactosidase activity, TCF-12 target construct (TCF12): statistically significant reduction in fold change
- beta-galactosidase activity, RAB22A target construct (RAB22A): decreased
- beta-galactosidase activity, SLC37A3 target construct (SLC37A3): decreased
- target binding in KCNMA1 (beta gal target cleavage assay) (KCNMA1): confirmed
